The subject of data set [1] is SPF SD rats. The following applies: rat, in vivo, po.
Data set [2] concerns HUVECs (Human umbilical vein endothelial cells). Briefly: Inhibitory effects on HUVEC tube formation.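 For tube formation: from minus no inhibition up to plus-plus-plus complete inhibition versus vehicle.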 The data set is classed as cell-based. Conditions: for inhibitory effect on HUVEC tube formation: 50 uM; for Tube formation: 50 μM. On the procedure:
The Inhibitory effects of the compounds of the formula 1 on angiogenesis were meassured by the vascular tube formation assay of HUVECs (Human umbilical vein endothelial cells), which is one of the major angiogenic steps.
HUVECs were isolated from human umbilical vein, and cultured. HUVECs within passage 5 from confluent cultures were detached, and plated onto a layer of a bFGF (basic fibroblast growth factor)-reduced and polymerized Matrigel. Matrigel cultures were incubated with or without the compounds of formula 1, and the changes of cell morphology were captured through a phase contrast microscope and photographed.

With `COC(OC)[C@]1(C)Oc2ccc([N+](=O)[O-])cc2[C@H](N(Cc2ncc[nH]2)c2ccc(Cl)cc2)[C@H]1O` [Example 3, (2R,3R,4S)-3,4-dihydro-2-dimethoxymethyl-3-hydroxy-2-methyl-6-nitro-4-[N-(4-chlorophenyl)-N-(1H-imidazol-2-ylmethyl)amino]-2H-1-benzopyran], the “clinical symptoms, body weight and mortality” value (“clinical symptoms” below) in data set [1] was “no significant changes”. Also, in data set [2], the “inhibitory effect on HUVEC tube formation” value is on record as “strongly inhibited” and the Tube formation result is reported as “++”.

With `COC(OC)[C@]1(C)Oc2ccc([N+](=O)[O-])cc2[C@@H](N(Cc2ncc[nH]2)c2ccc(Cl)cc2)[C@@H]1O` [Example 4, (2R,3S,4R)-3,4-dihydro-2-dimethoxymethyl-3-hydroxy-2-methyl-6-nitro-4-[N-(4-chlorophenyl)-N-(1H-imidazol-2-ylmethyl)amino]-2H-1-benzopyran], the “clinical symptoms” value in data set [1] was “no significant changes”. Further, the Tube formation result in data set [2] is on record as “+”.

With `COC(OC)[C@@]1(C)Oc2ccc([N+](=O)[O-])cc2[C@@H](N(Cc2ncc[nH]2)c2ccc(C(F)(F)F)cc2)[C@@H]1O` [Example 5, (2S,3S,4R)-3,4-dihydro-2-dimethoxymethyl-3-hydroxy-2-methyl-6-nitro-4-[N-(4-trifluoromethylphenyl)-N-(1H-imidazol-2-ylmethyl)amino]-2H-1-benzopyran], in data set [1], the “clinical symptoms” value is recorded as “no significant changes”. Besides, in data set [2], the “inhibitory effect on HUVEC tube formation” value is “strongly inhibited” and the Tube formation entry is recorded as “++”.

With `COC(OC)[C@@]1(C)Oc2ccc([N+](=O)[O-])cc2[C@@H](N(Cc2ncc[nH]2)c2ccc(OC(F)(F)F)cc2)[C@@H]1O` [Example 7, (2S,3S,4R)-3,4-dihydro-2-dimethoxymethyl-3-hydroxy-2-methyl-6-nitro-4-[N-(4-trifluoromethoxyphenyl)-N-(1H-imidazol-2-ylmethyl)amino]-2H-1-benzopyran], the “clinical symptoms” value in data set [1] was “no significant changes”. For the same compound, in data set [2], the Tube formation entry is given as “+”.

`COC(OC)[C@@]1(C)Oc2ccc([N+](=O)[O-])cc2[C@@H](N(Cc2ncc[nH]2)c2ccc(Br)cc2)[C@@H]1O` [Example 8, (2S,3S,4R)-3,4-dihydro-2-dimethoxymethyl-3-hydroxy-2-methyl-6-nitro-4-[N-(4-bromophenyl)-N-(1H-imidazol-2-ylmethyl)amino]-2H-1-benzopyran]: the “clinical symptoms” value in data set [1] is recorded as “no significant changes”. Also, in data set [2], the Tube formation entry is recorded as “+”.

Consider `COC(OC)[C@@]1(C)Oc2ccc([N+](=O)[O-])cc2[C@@H](N(Cc2ncc[nH]2)c2ccc(C)cc2C)[C@@H]1O` [Example 9, (2S,3S,4R)-3,4-dihydro-2-dimethoxymethyl-3-hydroxy-2-methyl-6-nitro-4-[N-(2,4-dimethylphenyl)-N-(1H-imidazol-2-ylmethyl)amino]-2H-1-benzopyran], for which, in data set [1], the “clinical symptoms” value is listed as “no significant changes”. Moreover, the Tube formation result in data set [2] was “+”.

In the case of `COC(OC)[C@@]1(C)Oc2ccc([N+](=O)[O-])cc2[C@@H](N(Cc2ncc[nH]2)c2cccc(C)c2C)[C@@H]1O` [Example 11, (2S,3S,4R)-3,4-dihydro-2-dimethoxymethyl-3-hydroxy-2-methyl-6-nitro-4-[N-(2,3-dimethylphenyl)-N-(1H-imidazol-2-ylmethyl)amino]-2H-1-benzopyran], the “clinical symptoms” value in data set [1] was “no significant changes”.

As to `COC(OC)[C@@]1(C)Oc2ccc([N+](=O)[O-])cc2[C@@H](N(Cc2ncc[nH]2)c2ccc(F)cc2)[C@@H]1O` [Example 15, (2S,3S,4R)-3,4-dihydro-2-dimethoxymethyl-3-hydroxy-2-methyl-6-nitro-4-[N-(4-fluorophenyl)-N-(1H-imidazol-2-ylmethyl)amino]-2H-1-benzopyran], in data set [1], the “clinical symptoms” value was “no significant changes”.

For `COc1ccccc1N(Cc1ncc[nH]1)[C@@H]1c2cc([N+](=O)[O-])ccc2O[C@](C)(C(OC)OC)[C@H]1O` [Example 16, (2S,3S,4R)-3,4-dihydro-2-dimethoxymethyl-3-hydroxy-2-methyl-6-nitro-4-[N-(2-methoxyphenyl)-N-(1H-imidazol-2-ylmethyl)amino]-2H-1-benzopyran], in data set [1], the “clinical symptoms” value is reported as “no significant changes”.

For `COC(OC)[C@]1(C)Oc2ccc([N+](=O)[O-])cc2[C@H](N(Cc2ncc[nH]2)c2ccccc2C(C)C)[C@H]1O` [Example 17, (2R,3R,4S)-3,4-dihydro-2-dimethoxymethyl-3-hydroxy-2-methyl-6-nitro-4-[N-(2-isopropylphenyl)-N-(1H-imidazol-2-ylmethyl)amino]-2H-1-benzopyran], the “clinical symptoms” value in data set [1] was “no significant changes”.

On to `COc1ccccc1N(Cc1ncc[nH]1)[C@H]1c2cc([N+](=O)[O-])ccc2O[C@@](C)(C(OC)OC)[C@@H]1O` [Example 18, (2R,3R,4S)-3,4-dihydro-2-dimethoxymethyl-3-hydroxy-2-methyl-6-nitro-4-[N-(2-methoxyphenyl)-N-(1H-imidazol-2-ylmethyl)amino]-2H-1-benzopyran], for which, in data set [1], the “clinical symptoms” value is “no significant changes”.

Take `COC(OC)[C@]1(C)Oc2ccc([N+](=O)[O-])cc2[C@H](N(Cc2ncc[nH]2)c2cccc(Cl)c2)[C@H]1O` [Example 19, (2R,3R,4S)-3,4-dihydro-2-dimethoxymethyl-3-hydroxy-2-methyl-6-nitro-4-[N-(3-chlorophenyl)-N-(1H-imidazol-2-ylmethyl)amino]-2H-1-benzopyran]: in data set [1], the “clinical symptoms” value is “no significant changes”.

As to `COC(OC)[C@@]1(C)Oc2ccc([N+](=O)[O-])cc2[C@@H](N(Cc2ncc[nH]2)c2cccc(Cl)c2)[C@@H]1O` [Example 20, (2S,3S,4R)-3,4-dihydro-2-dimethoxymethyl-3-hydroxy-2-methyl-6-nitro-4-[N-(3-chlorophenyl)-N-(1H-imidazol-2-ylmethyl)amino]-2H-1-benzopyran], in data set [1], the “clinical symptoms” value was “no significant changes”.

As for `COC(OC)[C@]1(C)Oc2ccc([N+](=O)[O-])cc2[C@H](N(Cc2ncc[nH]2)c2ccc(OC(F)(F)F)cc2)[C@H]1O` [Example 21, (2R,3R,4S)-3,4-dihydro-2-dimethoxymethyl-3-hydroxy-2-methyl-6-nitro-4-[N-(4-trifluoromethoxyphenyl)-N-(1H-imidazol-2-ylmethyl)amino]-2H-1-benzopyran], the “clinical symptoms” value in data set [1] was “no significant changes”.

On to `COC(OC)[C@@]1(C)Oc2ccc(N)cc2[C@@H](N(Cc2ncc[nH]2)c2cccc(C)c2C)[C@@H]1O` [Example 30, (2S,3S,4R)-6-amino-3,4-dihydro-2-dimethoxymethyl-3-hydroxy-2-methyl-4-[N-(2,3-dimethylphenyl)-N-(1H-imidazol-2-ylmethyl)amino]-2H-1-benzopyran], for which the “clinical symptoms” value in data set [1] was “no significant changes”.

`COc1ccccc1N(Cc1ncc[nH]1)[C@@H]1c2cc(N)ccc2O[C@](C)(C(OC)OC)[C@H]1O` [Example 31, (2S,3S,4R)-6-amino-3,4-dihydro-2-dimethoxymethyl-3-hydroxy-2-methyl-4-[N-(2-methoxyphenyl)-N-(1H-imidazol-2-ylmethyl)amino]-2H-1-benzopyran]: the “clinical symptoms” value in data set [1] is “no significant changes”.

`COc1ccc(N(Cc2ncc[nH]2)[C@@H]2c3cc(N)ccc3O[C@](C)(C(OC)OC)[C@H]2O)cc1` [Example 32, (2S,3S,4R)-6-amino-3,4-dihydro-2-dimethoxymethyl-3-hydroxy-2-methyl-4-[N-(4-methoxyphenyl)-N-(1H-imidazol-2-ylmethyl)amino]-2H-1-benzopyran]: in data set [1], the “clinical symptoms” value was “no significant changes”.

As for `COC(OC)[C@@]1(C)Oc2ccc(N)cc2[C@@H](N(Cc2ncc[nH]2)c2ccc(C)cc2C)[C@@H]1O` [Example 33, (2S,3S,4R)-6-amino-3,4-dihydro-2-dimethoxymethyl-3-hydroxy-2-methyl-4-[N-(2,4-dimethylphenyl)-N-(1H-imidazol-2-ylmethyl)amino]-2H-1-benzopyran], the “clinical symptoms” value in data set [1] is recorded as “no significant changes”.

On to `COC(OC)[C@@]1(C)Oc2ccc(N)cc2[C@@H](N(Cc2ncc[nH]2)c2ccccc2C(C)C)[C@@H]1O` [Example 34, (2S,3S,4R)-6-amino-3,4-dihydro-2-dimethoxymethyl-3-hydroxy-2-methyl-4-[N-(2-isopropylphenyl)-N-(1H-imidazol-2-ylmethyl)amino]-2H-1-benzopyran], for which the “clinical symptoms” value in data set [1] is on record as “no significant changes”.

In the case of `COC(OC)[C@@]1(C)Oc2ccc(N)cc2[C@@H](N(Cc2ncc[nH]2)c2ccc(OC(F)(F)F)cc2)[C@@H]1O` [Example 35, (2S,3S,4R)-6-amino-3,4-dihydro-2-dimethoxymethyl-3-hydroxy-2-methyl-4-[N-(4-trifluoromethoxyphenyl)-N-(1H-imidazol-2-ylmethyl)amino]-2H-1-benzopyran], the “clinical symptoms” value in data set [1] is “no significant changes”.

With `COC(OC)[C@@]1(C)Oc2ccc(N)cc2[C@@H](N(Cc2ncc[nH]2)c2ccc(Br)cc2)[C@@H]1O` [Example 36, (2S,3S,4R)-6-amino-3,4-dihydro-2-dimethoxymethyl-3-hydroxy-2-methyl-4-[N-(4-bromophenyl)-N-(1H-imidazol-2-ylmethyl)amino]-2H-1-benzopyran], in data set [1], the “clinical symptoms” value is “no significant changes”.

On to `COC(OC)[C@@]1(C)Oc2ccc(N)cc2[C@@H](N(Cc2ncc[nH]2)c2ccc(F)cc2)[C@@H]1O` [Example 37, (2S,3S,4R)-6-amino-3,4-dihydro-2-dimethoxymethyl-3-hydroxy-2-methyl-4-[N-(4-fluorophenyl)-N-(1H-imidazol-2-ylmethyl)amino]-2H-1-benzopyran], for which the “clinical symptoms” value in data set [1] was “no significant changes”.
